This assay deals with Polyunsaturated fatty acid 5-lipoxygenase (Cavia porcellus). Kind of assay: Inhibitory activity against partially-purified Guinea pig PMN 5-lipoxygenase.

A word on the IC50: it is the midpoint of a concentration-inhibition curve. A high value points to weaker potency. Regarding `Cc1ccnc(N2CCN(CCc3c(C)n4c5c(cc(O)cc35)CCC4)CC2)c1` [2-Methyl-1-{2-[4-(4-methyl-pyridin-2-yl)-piperazin-1-yl]-ethyl}-5,6-dihydro-4H-pyrrolo[3,2,1-ij]quinolin-8-ol], the IC50 came out at 2.8 µM.

These data come from BindingDB's records for doi:10.1021/jm00004a013 (Solvay Pharma, 1995).
